From patent US5011825A, “Peptides influencing diuresis and natriuresis, a process for their preparation, agents containing them, and their use” (Hoechst Aktiengesellschaft, priority 1986, dated 1991)

Test system: rat
Assay: Diuretic, natriuretic and kaliuretic action, Experimental Design 1 (anesthetized rats, continuous NaCl infusion, i.v. bolus)
Format: in vivo
Experimental: A. […]
Experimental Design 1: The rats were anesthetized with 0.1 ml of 10% strength thiobutabarbital sodium/100 g of body weight i.p. They received an NaCl infusion from 60 min before administration of the substance and continuing during the experiment (2.5 ml of a 0.9% strength NaCl solution .h^-1.0.1 kg^-1 body weight). The test substance was administered as an i.v. bolus in 0.5 ml of a 0.9% strength solution/100 g of body weight.

Z-Arg-Ile-Asp(OtBu)-Arg-Ile-ol
Urine (dose 1 μg/kg i.v. bolus, collection period 90 min, control 1.267): 0.79 mL/kg
K^+ (dose 1 μg/kg i.v. bolus, collection period 90 min, control 29.5): 27.8 µmol/kg
Na^+ (dose 1 μg/kg i.v. bolus, collection period 90 min, control 65.2): 118.4 µmol/kg
Type of action on diuresis, natriuresis and kaliuresis (in words) (judged from the data against control): antidiuretics with a natriuretic action
